How the values were obtained:
rgRSV224 virus = assay: Antiviral activity: inhibition of rgRSV224 (GFP-expressing RSV) replication in HeLa cells, GFP expression read-out; assay type: cell-based, respiratory syncytial virus (RSV); details: human respiratory syncytial virus, HeLa, read-out: RSV HELA pEC50, rgRSV224 virus (MOI=1) in HeLa cells, GFP read-out (converted)
Experimental: (§1) Black 384-well clear-bottom microtiter plates (Corning, Amsterdam, The Netherlands) were filled via acoustic drop ejection using the echo liquid handler (Labcyte, Sunnyvale, Calif.). 200 nL of compound stock solutions (100% DMSO) were transferred to the assay plates. 9 serial 4-fold dilutions of compound were made, creating per quadrant the same compound concentration. The assay was initiated by adding 10 μL of culture medium to each well (RPMI medium without phenol red, 10% FBS-heat inactivated, 0.04% gentamycin (50 mg/mL). All addition steps are done by using a multidrop dispenser (Thermo Scientific, Erembodegem, Belgium). Next, rgRSV224 virus (MOI=1) diluted in culture medium was added to the plates. rgRSV224 virus is an engineered virus that includes an additional GFP gene (Hallak LK, Spillmann D, Collins PL, Peeples Me. Glycosaminoglycan sulfation requirements for respiratory syncytial virus infection; Journal of virology (2000), 74(22), 10508-13) and was in-licensed from the NIH (Bethesda, Md., USA). Finally, 20 μL of a HeLa cell suspension (3,000 cells/well) were plated. Medium, virus- and mock-infected controls were included in each test. The wells contain 0.05% DMSO per volume. Cells were incubated at 37° C. in a 5% CO2 atmosphere. Three days post-virus exposure, viral replication was quantified by measuring GFP expression in the cells by an in house developed MSM laser microscope (Tibotec, Beerse, Belgium). The EC50 was defined as the 50% inhibitory concentration for GFP expression. In parallel, compounds were incubated for three days in a set of white 384-well microtiter plates (Corning) and the cytotoxicity of compounds in HeLa cells was determined by measuring the ATP content of the cells using the ATPlite kit (Perkin Elmer, Zaventem, Belgium) according to the manufacturer's instructions. The CC50 was defined as the 50% concentration for cytotoxicity.

[1] = Cytotoxicity in HeLa cells, ATP content measured with the ATPlite kit; assay type: cell-based; details: human, TOX HELA pCC50
Experimental: as §1

| SMILES | EC50 (rgRSV224 virus) [µM] | CC50 at 3 days [1] [µM] |
| --- | --- | --- |
| CCc1cc(C(=O)N2CCCCC[C@H]2C)nc2cc(-c3ccc(C4[C@@H](C(=O)O)C4(F)F)cc3F)nn12 (mixture of isomers) [Compound O18] | 0.191 | 53.7 |
| CCc1cc(C(=O)N2CCCC3(CC=CC3)C2C)nc2cc(-c3ccc(-c4ccc(C(=O)O)cn4)cc3F)nn12 (racemic) [Compound F50] | 0.324 | 60.3 |
| CCc1cc(C(=O)N2CCc3ccsc3C2C)nc2cc(-c3ccc(-c4ccc(C(=O)O)cn4)cc3F)nn12 (racemic) [Compound F55] | 0.12 | > 100 |
| CCc1cc(C(=O)N2CCn3c(Cl)ccc3C2C)nc2cc(-c3ccc(-c4ccc(C(=O)O)cn4)cc3F)nn12 (racemic) [Compound F56] | 0.155 | > 100 |
| CCc1cc(C(=O)N2CCc3sc(C)cc3C2C)nc2cc(-c3ccc(-c4ccc(C(=O)O)cn4)cc3F)nn12 (racemic) [Compound F58] | 0.17 | 26.3 |
| CCc1cc(C(=O)N2CCCn3cccc3C2C)nc2cc(-c3ccc(-c4ccc(C(=O)O)cn4)cc3F)nn12 (racemic) [Compound F59] | 0.191 | > 25.1 |
| CCc1cc(C(=O)N2CCn3cccc3C2C)nc2cc(-c3ccc4c(c3F)OCC(C(=O)O)=C4)nn12 (racemic) [Compound F61] | 0.0457 | > 100 |
| C[C@@H]1CCCCCN1C(=O)c1cc(C2(C)COC2)n2nc(-c3ccc4c(c3F)OCC(C(=O)O)=C4)cc2n1 (racemic) [Compound F62] | 0.0575 | > 25.1 |
| CC1c2ccsc2CCN1C(=O)c1cc(C2(C)CC2)n2nc(-c3ccc4c(c3F)OCC(C(=O)O)=C4)cc2n1 (racemic) [Compound F67] | 0.0398 | 67.6 |
| C[C@@H]1c2ccccc2CCN1C(=O)c1cc(C2(C)CC2)n2nc(-c3ccc(C4C[C@H]4C(=O)O)cc3F)cc2n1 (mixture of isomers) [Compound O8] | 0.0117 | 49 |
| C[C@@H]1CCCCCN1C(=O)c1cc(C2(C)CC2)n2nc(-c3cccc([C@H]4C[C@@H]4C(=O)O)c3F)cc2n1 (racemic) [Compound O9] | 0.11 | 89.1 |
| CCCC(C)N(CC)C(=O)c1cc(CC)n2nc(-c3ccc(C4C[C@H]4C(=O)O)cc3F)cc2n1 (mixture of isomers) [Compound O13] | 0.141 | 45.7 |
| CCc1cc(C(=O)N2CCCCC[C@H]2C)nc2cc(-c3ccc(N(C)[C@H]4C[C@H](C(=O)O)C4)cc3F)nn12 (racemic) [Compound W22] | 0.0457 | 87.1 |
| CCc1cc(C(=O)N2CCCCC[C@H]2C)nc2cc(-c3ccc(-n4cc(C(=O)O)c(C)n4)cc3F)nn12 (racemic) [Compound W25] | 0.0933 | 66.1 |
| CCCC(C)N(CC)C(=O)c1cc(CC)n2nc(-c3ccc([C@H]4C[C@@H]4C(=O)O)cc3F)cc2n1 (relative stereo) [Compound O14] | 0.219 | 66.1 |
| CCc1cc(C(=O)N2CCn3cccc3[C@H]2C)nc2cc(-c3ccc([C@H]4C[C@@H]4C(=O)O)cc3F)nn12 (relative stereo) [Compound O19] | 0.0309 | 91.2 |
| CCc1cc(C(=O)N2CCCCC[C@H]2C)nc2cc(-c3ccc(C4C[C@H]4C(=O)O)cc3F)nn12 (single isomer, unassigned) [Compound O2] | 0.0589 | > 25.1 |
| CCc1cc(C(=O)N2CCCCCC2C)nc2cc(C3CCCCC3)nn12 (centres unmarked) [Compound A5] | 4.79 | 33.1 |
| CCCCC(C)N(C)C(=O)c1cc(CC)n2nc(-c3ccccc3F)cc2n1 (centres unmarked) [Compound A17] | 1.51 | 40.7 |
| CC1CCCCCN1C(=O)c1cc(CC2CCCCC2)n2nc(-c3ccccc3F)cc2n1 (centres unmarked) [Compound A20] | 6.31 | > 25.1 |

| SMILES | EC50 (rgRSV224 virus) [µM] | CC50 at 3 days [1] [µM] |
| --- | --- | --- |
| CCCCc1nc(Cl)c(-c2cc3nc(C(=O)N4CCCCCC4C)cc(CC)n3n2)[nH]1 (centres unmarked) [Compound A22] | 0.603 | > 25.1 |
| CCc1cc(C(=O)N2CCCCCC2C)nc2cc(-c3ccc(NS(=O)(=O)C4CC4)cc3F)nn12 (centres unmarked) [Compound D2] | 0.603 | > 50.1 |
| CCc1cc(C(=O)N2CCCCCC2C)nc2cc(-c3cc(NC(=O)C4CC4)ccc3F)nn12 (centres unmarked) [Compound E12] | 0.447 | 60.3 |
| CCc1cc(C(=O)N2CCCCCC2C)nc2cc(-c3ccc(-c4cccnc4)cc3)nn12 (centres unmarked) [Compound F2] | 2.95 | 38.9 |
| CCc1cc(C(=O)N2CCCCCC2C)nc2cc(-c3ccc(-c4cn[nH]c4)cc3F)nn12 (centres unmarked) [Compound F6] | 0.355 | > 25.1 |
| CCc1cc(C(=O)N2CCCCCC2C)nc2cc(-c3ccc(-c4cnc(C)n4C)cc3F)nn12 (centres unmarked) [Compound F11] | 1.35 | > 25.1 |
| CCc1cc(C(=O)N2CCCCCC2C)nc2cc(-c3ccc(-c4cnn(C5CC5)c4)cc3F)nn12 (centres unmarked) [Compound F12] | 1.38 | > 25.1 |
| CCc1cc(C(=O)N2CCCCCC2C)nc2cc(-c3ccc(-c4cncn4C)cc3F)nn12 (centres unmarked) [Compound F13] | 0.562 | > 25.1 |
| CCc1cc(C(=O)N2CCCCCC2C)nc2cc(-c3ccc(-c4c[nH]cn4)cc3F)nn12 (centres unmarked) [Compound F16] | 0.145 | > 25.1 |
| CCc1cc(C(=O)N2CCCCC[C@H]2C)nc2cc(-c3ccc(-c4cnc(C(=O)O)c(F)c4)cc3F)nn12 [Compound F19] | 0.0977 | 36.3 |
| CCc1cc(C(=O)N2CCc3ccccc3C2C)nc2cc(-c3ccc(-c4ccc(C(=O)O)nc4)cc3F)nn12 (centres unmarked) [Compound F22] | 0.0355 | 6.92 |
| CCc1cc(C(=O)N2CCc3ccccc3[C@H]2C)nc2cc(-c3ccc(-c4ccc(C(=O)O)cn4)cc3F)nn12 [Compound F23] | 0.0407 | > 25.1 |
| CCc1cc(C(=O)N2CCCCC[C@H]2C)nc2cc(-c3ccc(-c4ccc(C(=O)O)nc4)cc3F)nn12 [Compound F24] | 0.0692 | 12.6 |
| CCc1cc(C(=O)N2CCCCC[C@H]2C)nc2cc(-c3ccc(-c4ccnc(C(=O)O)c4)cc3F)nn12 [Compound F25] | 0.0437 | 13.5 |
| C[C@@H]1CCCCCN1C(=O)c1cc(C2CCC2)n2nc(-c3ccc(-c4ccc(C(=O)O)cn4)cc3F)cc2n1 [Compound F32] | 0.0282 | 32.4 |
| CCc1cc(C(=O)N2CCCCC[C@H]2C)nc2cc(-c3cc4ccc(C(=O)O)nc4cc3F)nn12 [Compound F33] | 0.0912 | 66.1 |
| CCc1cc(C(=O)N2CCCCC[C@H]2C)nc2cc(-c3ccc([C@H]4CC[C@H](C(=O)O)CC4)cc3F)nn12 [Compound F37] | 0.182 | 38 |
| C[C@@H]1CCCCCN1C(=O)c1cc(C2CC2)n2nc(-c3ccc4c(c3F)OCC(C(=O)O)=C4)cc2n1 [Compound F38] | 0.0513 | 36.3 |
| CCc1cc(C(=O)N2CCCCC[C@H]2C)nc2cc(-c3ccc4ccc(C(=O)O)nc4c3F)nn12 [Compound F45] | 0.0437 | 91.2 |
| CCc1cc(C(=O)N2CCCCC[C@H]2C)nc2cc(-c3ccc(C4CC5(CC(C(=O)O)C5)C4)cc3F)nn12 (some centres unmarked) [Compound F47] | 0.245 | 46.8 |

From patent publication US11084826B2, “RSV antiviral pyrazolo- and triazolo-pyrimidine compounds” (Janssen Sciences Ireland Unlimited Company, priority 2015, dated 2021)
